Experimental data reported in BindingDB's records for doi:10.1021/jm050224y (Philipps-Universitat Marburg, 2005).

Target: T1, Dimer of Gag-Pol polyprotein [489-587] (Human immunodeficiency virus 1, UniProt P12497)
T1 construct: 489-587
Test: Protease Inhibition Assay
Settings: pH 5.5; 25 °C
Method: The inhibition assays were performed by mixing enzyme and fluorogenic substrate in the presence of inhibitor compounds. The hydrolysis of the substrate was recorded as an increase of the fluorescence intensity. Ki values were calculated from the IC50 values taken from a dose-response curve with the fluorescent assay using the equation Ki = (IC50 - [E]/2)/ (1 +[S]/Km), where [E] and [S] are the protease and substrate concentrations, Km is the Michaelis-Menten constant.

SMILES: O=C(N[C@@H](Cc1cccc(Br)c1)[C@H](O)C[C@H](CCc1ccc(Cl)cc1Cl)S(=O)(=O)c1ccc(F)cc1)[C@H]1CCCO1 [(2R)-N-{(1S,2R,4S)-1-(3-bromobenzyl)-6-(2,4-dichlorophenyl)-4-[(4-fluorophenyl)sulfonyl]-2-hydroxyhexyl}tetrahydrofuran-2-carboxamide]
- IC50: 4.2 µM

SMILES: CC(C)CCS(=O)(=O)[C@@H](C)C[C@@H](O)[C@H](Cc1cccc(Br)c1)NC(=O)CCS(C)(=O)=O [N-{(1S,2R,4S)-1-(3-bromobenzyl)-2-hydroxy-4-[(3-methylbutyl)sulfonyl]pentyl}-3-(methylsulfonyl)propanamide]
- IC50: > 40 µM
- Ki: > 40 µM

SMILES: O=C(N[C@H](Cc1cccc(Br)c1)[C@@H](O)C[C@@H](CCc1ccc(Cl)cc1Cl)S(=O)(=O)c1ccc(F)cc1)[C@H]1CCCO1 [(2R)-N-{(1R,2S,4R)-1-(3-bromobenzyl)-6-(2,4-dichlorophenyl)-4-[(4-fluorophenyl)sulfonyl]-2-hydroxyhexyl}tetrahydrofuran-2-carboxamide]
- IC50: > 40 µM
- Ki: > 40 µM
